According to paper PMC10247784, “Physiological activation of human and mouse bitter taste receptors by bile acids” (Communications Biology, 2023):

Target: T1, mouse Tas2r105 (Mus musculus, UniProt Q9JKT4)
T1 construct: expressed in transfected cells; host or cells: HEK293T-Gα16gust44
T1 sequence (Q9JKT4 1-300): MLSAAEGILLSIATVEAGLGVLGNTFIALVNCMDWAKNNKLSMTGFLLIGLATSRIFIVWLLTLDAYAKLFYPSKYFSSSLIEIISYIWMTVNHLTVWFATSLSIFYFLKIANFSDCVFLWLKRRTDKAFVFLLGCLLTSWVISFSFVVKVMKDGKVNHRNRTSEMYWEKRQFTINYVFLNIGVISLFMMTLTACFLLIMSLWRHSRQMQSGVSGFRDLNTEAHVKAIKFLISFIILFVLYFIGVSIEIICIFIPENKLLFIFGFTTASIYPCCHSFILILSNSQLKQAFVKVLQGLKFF
Assay: Calcium imaging assay (FLIPR), HEK293T-Gα16gust44 cells transfected with mouse Tas2r105
Format: cell-based
Experimental: This set of bile acids was chosen because of their commercial availability in high purities, their diversity within the class of bile acids and their previous detection and quantitation in human blood. Stock solutions were prepared in DMSO.
As basal growth medium for the HEK293T-Gα16gust44 cell line[17],[59] served Dulbecco’s modified eagle medium (DMEM) (Thermo Fisher Scientific, Darmstadt, Germany) supplemented with 10 % fetal bovine serum (Sigma-Aldrich, Steinheim, Germany), 2 mM L-glutamine (Sigma-Aldrich, Steinheim, Germany), 100 units/ml penicillin (Sigma Aldrich, Steinheim, Germany) and 100 µg/ml streptomycin (Sigma Aldrich, Steinheim, Germany). Growth conditions were 37 °C, 5 % CO2 and saturated air-humidity[60].
HEK293T-Gα16gust44 cells were seeded on poly-D-lysine (10 µg/ml) coated 96-well plates to reach a confluence of 40-60 % the next day. For transient transfection 150 ng of plasmid DNA containing the receptor of interest and 0.3 µl lipofectamine 2000 (Thermo Fisher Scientific, Darmstadt, Germany) per well were used and transfection took place according to the manual of lipofectamine 2000. […] The empty vector DNA (mock) was transfected as negative control[14],[41].
Cells were loaded using the calcium-sensitive fluorescent dye Fluo-4-AM (Abcam, Cambridge, Great Britain) in the presence of 2.5 mM probenecid (Sigma-Aldrich, Steinheim, Germany) the day after transfection[13],[41]. 1 h after loading, cells were washed with C1 buffer using a BioTek Cell Washer, incubated in the dark for half an hour and washed again. For automated agonist application and measurement of fluorescence changes, a FLIPR^TETRA device (Molecular Devices, San José, United States) was used. Viability of cells was tested by application of 100 nM Somatostatin 14 (Bachem, Bubendorf, Switzerland)[42].
Measured data were negative control corrected by subtracting the signal of the mock-transfected cells and exported to Microsoft Excel using the FLIPR software ScreenWorks 4.2. In Microsoft Excel software, standardization of maximum fluorescence intensities to the basal fluorescence and normalization to the buffer-only control was done to calculate the relative fluorescence changes (ΔF/F).
Initial screening experiments performed in duplicate wells were confirmed by at least one replication and representative traces were selected for display. All dose-response relationships were determined by three independent experiments (biological replicates) performed in duplicates (technical replicates). Threshold concentrations, defined as lowest substance concentrations leading to statistically significant elevated fluorescence changes in receptor-transfected cells compared with empty vector-transfected cells, were determined using SigmaPlot with Student’s t-test to evaluate statistical significance (p < 0.01).

## C[C@H](CCC(=O)O)[C@H]1CC[C@H]2[C@@H]3[C@H](O)C[C@@H]4C[C@H](O)CC[C@]4(C)[C@H]3C[C@H](O)[C@]12C [Cholic Acid, cholic acid]
Time 0 s
  RLU: 0 RLU
Time 2 s
  RLU: 1.777 RLU
Time 4 s
  RLU: 7.834 RLU
Time 6 s
  RLU: 2.675 RLU
Time 8 s
  RLU: 9.829 RLU
Time 12 s
  RLU: -3.285 RLU
Time 14 s
  RLU: -7.0734 RLU
Time 16 s
  RLU: 15 RLU
Time 18 s
  RLU: 44.4226 RLU
Time 18.781 s
  RLU: 21.6772 RLU
Time 20.781 s
  RLU: 9.429 RLU
Time 22.781 s
  RLU: 39.5966 RLU
Time 24.781 s
  RLU: 10.8272 RLU
Time 26.781 s
  RLU: 50.2337 RLU
Time 28.781 s
  RLU: 59.2009 RLU
Time 30.781 s
  RLU: 49.6279 RLU
Time 32.781 s
  RLU: 86.2126 RLU
Time 34.781 s
  RLU: 65.8416 RLU
Time 36.781 s
  RLU: 100.025 RLU
Time 38.781 s
  RLU: 89.1237 RLU
Time 40.781 s
  RLU: 115.541 RLU
Time 42.781 s
  RLU: 131.095 RLU
Time 44.781 s
  RLU: 139.548 RLU
Time 46.781 s
  RLU: 164.231 RLU
Time 48.781 s
  RLU: 193.51 RLU
Time 50.781 s
  RLU: 193.303 RLU
Time 52.781 s
  RLU: 217.91 RLU
Time 54.781 s
  RLU: 257.63 RLU
Time 56.781 s
  RLU: 273.677 RLU
Time 58.781 s
  RLU: 284.724 RLU
Time 60.781 s
  RLU: 322.244 RLU
Time 62.781 s
  RLU: 314.427 RLU
Time 64.781 s
  RLU: 342.91 RLU
Time 66.781 s
  RLU: 375.793 RLU
Time 68.781 s
  RLU: 398.01 RLU
Time 70.781 s
  RLU: 424.457 RLU
Time 72.781 s
  RLU: 449.971 RLU
Time 74.781 s
  RLU: 470.44 RLU
Time 76.781 s
  RLU: 487.87 RLU
Time 78.781 s
  RLU: 480.774 RLU
Time 80.781 s
  RLU: 513.812 RLU
Time 82.781 s
  RLU: 513.576 RLU
Time 84.781 s
  RLU: 531.991 RLU
Time 86.781 s
  RLU: 549.947 RLU
Time 88.781 s
  RLU: 553.294 RLU
Time 90.781 s
  RLU: 575.612 RLU
Time 92.781 s
  RLU: 557.955 RLU
Time 94.781 s
  RLU: 575.485 RLU
Time 96.781 s
  RLU: 548.118 RLU
Time 98.781 s
  RLU: 585.897 RLU
Time 100.781 s
  RLU: 576.152 RLU
Time 102.781 s
  RLU: 586.681 RLU
Time 104.781 s
  RLU: 569.701 RLU
Time 106.781 s
  RLU: 551.409 RLU
Time 108.781 s
  RLU: 564.279 RLU
Time 110.781 s
  RLU: 542.028 RLU
Time 112.781 s
  RLU: 544.652 RLU
Time 114.781 s
  RLU: 548.979 RLU
Time 116.781 s
  RLU: 550.607 RLU
Time 118.781 s
  RLU: 555.391 RLU
Time 120.781 s
  RLU: 575.811 RLU
Time 122.781 s
  RLU: 538.707 RLU
Time 124.781 s
  RLU: 581.753 RLU
Time 126.781 s
  RLU: 520.313 RLU
Time 128.781 s
  RLU: 519.484 RLU
Time 130.781 s
  RLU: 535.938 RLU
Time 132.781 s
  RLU: 507.19 RLU
Time 134.781 s
  RLU: 533.269 RLU
Time 136.781 s
  RLU: 500.116 RLU
Time 137.578 s
  RLU: 523.788 RLU
Time 143.578 s
  RLU: 484.404 RLU
Time 149.578 s
  RLU: 476.256 RLU
Time 155.578 s
  RLU: 501.067 RLU
Time 161.578 s
  RLU: 504.009 RLU
Time 167.578 s
  RLU: 489.395 RLU
Time 173.578 s
  RLU: 450.925 RLU
Time 179.578 s
  RLU: 464.442 RLU
Time 185.578 s
  RLU: 417.045 RLU
Time 191.578 s
  RLU: 421.394 RLU
Time 197.578 s
  RLU: 391.24 RLU
Time 203.578 s
  RLU: 344.694 RLU
Time 209.578 s
  RLU: 358.293 RLU
Time 215.578 s
  RLU: 343.137 RLU
Time 221.578 s
  RLU: 329.589 RLU
Time 227.578 s
  RLU: 339.83 RLU
Time 233.578 s
  RLU: 325.692 RLU
Time 239.578 s
  RLU: 315.743 RLU
Time 245.578 s
  RLU: 313.71 RLU
Time 293.578 s
  RLU: 197.324 RLU
Time 299.578 s
  RLU: 152.865 RLU
Time 305.578 s
  RLU: 156.643 RLU
Time 311.578 s
  RLU: 134.046 RLU
Time 317.578 s
  RLU: 124.601 RLU
Time 323.578 s
  RLU: 131.88 RLU
Time 329.578 s
  RLU: 133.734 RLU
Time 335.578 s
  RLU: 174.038 RLU
Time 341.578 s
  RLU: 165.309 RLU
Time 347.578 s
  RLU: 173.556 RLU
Time 353.578 s
  RLU: 191.675 RLU
Time 359.578 s
  RLU: 226.638 RLU
P < 0.01 vs empty vector
  Activation threshold concentration Tas2r105: 300 µM
